From patent US5206135A, “Use of the oxygenase activity of acetolactate synthase for herbicide detection” (E. I. Du Pont de Nemours and Company, priority 1990, dated 1993)
One block for each molecule: values may come before it.

Key:
Format in all cases: biochemical
acetolactate synthase [1] = molecular target: T1, acetolactate synthase (Escherichia coli, UniProt P0DP90); assay: Oxygenase activity of acetolactate synthase with different substrates (oxygen-sensitive electrode)
T1 sequence (P0DP90 1-548): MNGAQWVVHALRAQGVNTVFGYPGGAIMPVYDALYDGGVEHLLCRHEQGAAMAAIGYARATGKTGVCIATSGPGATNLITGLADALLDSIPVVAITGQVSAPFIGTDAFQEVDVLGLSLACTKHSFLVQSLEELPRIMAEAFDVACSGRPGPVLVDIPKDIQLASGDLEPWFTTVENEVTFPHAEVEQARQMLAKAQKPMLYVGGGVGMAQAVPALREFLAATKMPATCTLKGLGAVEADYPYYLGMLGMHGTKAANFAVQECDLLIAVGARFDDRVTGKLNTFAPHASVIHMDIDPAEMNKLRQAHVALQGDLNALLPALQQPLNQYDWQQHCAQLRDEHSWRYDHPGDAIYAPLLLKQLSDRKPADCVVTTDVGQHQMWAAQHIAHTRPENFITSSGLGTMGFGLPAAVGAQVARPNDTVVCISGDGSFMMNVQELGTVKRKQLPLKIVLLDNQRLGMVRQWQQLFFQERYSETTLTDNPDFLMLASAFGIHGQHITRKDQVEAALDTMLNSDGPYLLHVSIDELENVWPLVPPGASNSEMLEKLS
T1 sequence (P0ADG1 1-87 partner): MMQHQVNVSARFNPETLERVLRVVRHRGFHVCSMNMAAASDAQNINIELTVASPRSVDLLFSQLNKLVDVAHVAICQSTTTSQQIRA
Description: (§1) To a 1 ml solution containing 0.1 M tricine-NaOH, pH 8, 10 mM MgCl2, 0.1 mM thiamine pyrophosphate, and 0.1 mM flavin adenine dinucleotide were added various concentrations of pyruvate (10 μM to 10 mM), α-keto-butyrate (10 μM to 80 mM), or acetolactate (0.15 to 5.5 mM). After allowing the solution to equilibrate with air (21 % O2), the level of dissolved oxygen was monitored by use of a commercially available oxygen-sensitive electrode (Hansatech) and polarographic electronics as described by Sweet et al. (Analytical Biochemistry 107:337 (1980)). In the absence of further additions, negligible oxygen was consumed over a 30 minute period. To initiate the consumption of oxygen, 20 μl of a 2 mg/ml stock solution of acetolactate synthase was added if pyruvate or α-acetolactate were used as substrate, or 5 μl of a 49 mg/ml stock solution of acetolactate synthase was added if α-ketobutyrate was used as substrate. The limiting rate of oxygen consumption at saturating concentrations of pyruvate, α-ketobutyrate, or α-acetolactate are illustrated in Table 1. The concentrations of α-acetolactate or α-ketobutyrate that gave half of the maximum rate (the Michaelis constant) were 1.4 mM and 32 μM, respectively.

acetolactate synthase [2] = molecular target: T1, acetolactate synthase; assay: Sensitivity of the oxygenase activity of acetolactate synthase to herbicides (oxygen-sensitive electrode); conditions: 100 μM pyruvate as substrate; rate of oxygen consumption; pH 8; read-out: Concentration that Gives 50% Inhibition
Description: as §1, with “The concentrations of α-acetolactate or α-ketobutyrate that gave half of the maximum rate (the Michaelis constant) were 1.4 mM and 32 μM, respectively.” left out
Assays were conducted as described under Examples 1-3, except that 100 μM pyruvate was used as substrate. […] These values are similar to previously reported values (Schloss et al. Nature 331:360 (1988)) for inhibition of the enzyme monitored by use of the known acetolactate-forming reaction.

[3] = substrate: CC(=O)C(C)(O)C(=O)O; assay: Oxygenase activity of acetolactate synthase with different substrates (oxygen-sensitive electrode); conditions: other: oxygen consumption, pH 8, air-equilibrated
Description: as §1

[4] = substrate: CCC(=O)C(=O)O; assay: as above; conditions: other: oxygen consumption, pH 8, air-equilibrated
Description: as §1

Km (acetolactate synthase [1]; oxygen consumption, pH 8, air-equilibrated, read-out: Concentration that gave half of the maximum rate (the Michaelis constant)): < 10 µM
Molecule: CC(=O)C(=O)O [Pyruvate]

Molecule: COc1nc(C)nc(NC(=O)NS(=O)(=O)c2ccccc2Cl)n1 [chlorsulfuron]
IC50 (acetolactate synthase [2]): 500 nM

Molecule: COC(=O)c1ccccc1S(=O)(=O)NC(=O)Nc1nc(C)cc(C)n1 [sulfometuron methyl]
IC50 (acetolactate synthase [2]): 1000 nM

Maximum rate (μmoles of oxygen consumed/mg enzyme/min) (acetolactate synthase [1]; limiting rate of oxygen consumption at saturating substrate, 0.1 M tricine-NaOH pH 8, air-equilibrated (21 % O2)): 0.20 μmoles of oxygen consumed/mg e
Molecule: CC(=O)C(C)(O)C(=O)O (stereo not drawn) [α-Acetolactate]

B1: acetolactate synthase (Escherichia coli K-12) (protein)
chain: T1 sequence (P0DP90 1-548)
Km [3]: 1400 µM | Km [4]: 32 µM
